From patent US7232646B2, “Low-viscous, radiation curable formulation, particularly for the stereo-lithographical production of earpiece” (Dreve-Otoplastik GmbH, priority 2003, dated 2007)

Assay: Window pane method for critical energy Ec and laser penetration depth Dp
Type: physicochemical
Settings: inhibitor added to resin formulation; for influence of inhibitor concentration on laser penetration depth Dp: FIGS. 1 and 3; for influence of inhibitor concentration on critical energy Ec: FIGS. 2 and 4
Procedure: Into the mixture according to the invention, 2,2,6,6-tetramethylpiperdine-1-yloxy (free radical) is added. The influence of the concentration of the 2,2,6,6-tetramethylpiperdine-1-yloxy (free radical) in the exemplary formalation 1 upon the penetration depth of the laser beam and energy has been shown in FIGS. 1 and 2. The laser penetration depth and the critical energy are determined by means of the window pane method described by P. F. Jacobs and D. R. Read in Rapid Prototyping and Manufacturing of the Society of Manufacturing Engineers, Dearborn, Mich. (1992), 1st, ed., pgs. 263-280. […] This influence of the inhibitor 2,2,6,6-tetramethylpiperdine-1-yloxy (free radical) upon the relevant parameters Ec (critical energy in mJ cm^−2) and Dp (laser penetration depth in mils) of the stereolithographic resin, the effect differing from the influence of the inhibitors like, for example, hydroquinone-monomethylether which are added to stereolithographic resins in accordance with the state of the art. The influence of the hydroquinonemonomethylether on the parameters Ec and Dp in the exemplary formulations 2 is shown in FIGS. 3 and 4.
The relevant parameters for the use of the above mentioned resins in stereolithography are collected in Table 1. All viscosity measurements were carried out at 23° C. with a CVO 120 rheometer of Bohlin Instruments. The determination of the bend strength, the modulus of elasticity and the elongation were carried out in accordance with EN ISO 178 (1996) with a Zwick 1—test machine of the Zwick firm. For the determination of the Ec and Dp values by means of the above mentioned window pane method, the average value from 10 window pane sample bodies was determined. The sample bodies were produced with a Viper Si^2 SLA apparatus equipped with an ND:YVO4 solid body laser. The green bodies were after hardened with a stroboscope lighting unit Sonolux PR from Innovation Meditech by means of 4000 flashes.

Row | SMILES | influence of inhibitor concentration on laser penetration depth Dp | influence of inhibitor concentration on critical energy Ec
1 | CC1(C)CCCC(C)(C)N1[O] [2,2,6,6-tetramethylpiperdine-1-yloxy (free radical)] | only a limited change in the penetration depth | surprising increase in the critical energy
2 | COc1ccc(O)cc1 [hydroauinonemonomethylether, hydroquinone-monomethylether] | greater than in the case of the use of the 2,2,6,6-tetramethyl piperdine-1-yloxy (free radical) | can only be adjusted by significantly higher concentrations
